We go through 8 compounds from PubChem BioAssay (NCI).

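Assay format: 96-well plates, 48-hour exposure. GI50 = concentration required for 50% inhibition of growth. At the TGI there is no net growth.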

Test systems include A498 renal; CAKI-1 renal; COLO 205 colon; HCT-116 colon; HL-60(TB) leukemia; HOP-92 NSCLC; NCI-H226 lung; OVCAR-5 ovarian; SF-295 CNS; SK-MEL-28 melanoma.
What all share (experiment): DTP human tumour cell line panel, 48 h

For orientation: GI50 means the concentration giving 50% growth inhibition. Broadly, the TGI is the concentration at which net growth stops. Lower therefore signals greater sensitivity of the cells. For `COc1cccc(/C=N/NC(=O)c2ccccc2Nc2ccnc(C(F)(F)F)c2)c1O`, the GI50 was 5.11 µM in the test with A498 renal; 0.257 µM in the test with CAKI-1 renal; 0.353 µM with COLO 205 colon; 0.311 µM in the test with HCT-116 colon; 0.215 µM with HL-60(TB) leukemia; 0.342 µM with HOP-92 NSCLC. For the same compound, the GI50 in the test with NCI-H226 lung is 0.571 µM; in the test on OVCAR-5 ovarian, 0.701 µM; with SF-295 CNS it was 0.522 µM; in the test with SK-MEL-28 melanoma it was 1.48 µM. In addition, the TGI was over 42.8 µM in the test on A498 renal; 9.72 µM in the test on CAKI-1 renal; over 53.8 µM with COLO 205 colon; over 67.2 µM in the test with HCT-116 colon; 0.677 µM with HL-60(TB) leukemia; 21.5 µM with HOP-92 NSCLC. The TGI is 36.5 µM with NCI-H226 lung, 98.3 µM in the test with OVCAR-5 ovarian, 29.1 µM with SF-295 CNS and over 34.7 µM with SK-MEL-28 melanoma.
For the compound `Cc1c(C(=O)N/N=C/c2ccc(Cl)cc2)nnn1-c1ccnc2c(C(F)(F)F)cccc12`, the GI50 in the test on A498 renal is 15.9 µM; with CAKI-1 renal, 17.6 µM; with COLO 205 colon it was 1.55 µM; in the test with HCT-116 colon, 2.31 µM; in the test on HL-60(TB) leukemia, 6.39 µM; with HOP-92 NSCLC, 3.62 µM. Moreover, the GI50 in the test with NCI-H226 lung is 2.77 µM; in the test with OVCAR-5 ovarian, 15.6 µM; in the test with SF-295 CNS, 1.82 µM; with SK-MEL-28 melanoma it was 14.4 µM. Further, the TGI came to 45.1 µM with A498 renal; 45.1 µM with CAKI-1 renal; 3.58 µM with COLO 205 colon; 5.42 µM with HCT-116 colon; 48 µM in the test with HL-60(TB) leukemia; 16.2 µM in the test on HOP-92 NSCLC. The TGI in the test with NCI-H226 lung came to 8.32 µM; in the test on OVCAR-5 ovarian, 36.9 µM; in the test with SF-295 CNS, 4.01 µM; in the test on SK-MEL-28 melanoma, 38.5 µM.
On to `O=C1NNC=Nc2ccc(cc2)S(=O)(=O)c2ccc(cc2)N=CNNC1=O`, for which the concentration for total growth inhibition (TGI) in the test on A498 renal, with CAKI-1 renal, with COLO 205 colon, in the test on HCT-116 colon, with HL-60(TB) leukemia and in the test with HOP-92 NSCLC was over 100 µM each time. For the same compound, the TGI in the test with NCI-H226 lung, in the test on OVCAR-5 ovarian, in the test on SF-295 CNS and in the test on SK-MEL-28 melanoma was over 100 µM throughout.
As to `COc1ccc(CNc2cc(OC)c(OC)c(OC)c2)cc1`, the TGI with A498 renal was over 83.4 µM; with CAKI-1 renal, over 100 µM; with COLO 205 colon it was 9.34 µM; in the test on HCT-116 colon it was over 42.4 µM; in the test with HL-60(TB) leukemia, over 24.5 µM; in the test on HOP-92 NSCLC it was over 100 µM. Moreover, the TGI with NCI-H226 lung is over 62.1 µM; in the test on OVCAR-5 ovarian, over 83.7 µM; in the test on SF-295 CNS, over 55.1 µM; in the test on SK-MEL-28 melanoma, over 100 µM.
Regarding `O=C(Nc1ccc(N2CCNCC2)cc1)c1[nH]ncc1Nc1cc(Oc2ccccc2)ncn1`, the GI50 with A498 renal was 1.96 µM; with CAKI-1 renal, 1.21 µM; in the test with COLO 205 colon, 1.19 µM; with HCT-116 colon, 1.42 µM; in the test with HL-60(TB) leukemia, 1.91 µM; with HOP-92 NSCLC, 2.35 µM. Also, the GI50 is 1.91 µM in the test on NCI-H226 lung, 1.78 µM in the test on OVCAR-5 ovarian, 1.7 µM in the test on SF-295 CNS and 2.26 µM with SK-MEL-28 melanoma. Moreover, the TGI is 4.82 µM with A498 renal; 3.39 µM in the test on CAKI-1 renal; 2.78 µM with COLO 205 colon; 2.99 µM with HCT-116 colon; 4.54 µM with HL-60(TB) leukemia; 5.32 µM in the test with HOP-92 NSCLC. Besides, the concentration for total growth inhibition (TGI) in the test on NCI-H226 lung is 10.5 µM; in the test on OVCAR-5 ovarian it was 4.24 µM; in the test with SF-295 CNS it was 3.27 µM; in the test with SK-MEL-28 melanoma, 5.75 µM.
As for `Cc1cc(I)cc(CNCCCN2CCSCC2)c1O`, the GI50 with A498 renal was 13.7 µM; in the test with CAKI-1 renal it was 15.1 µM; in the test on COLO 205 colon it was 15 µM; in the test on HCT-116 colon, 11.1 µM; with HL-60(TB) leukemia, 15.8 µM; in the test on HOP-92 NSCLC it was 7.57 µM. Further, the GI50 with NCI-H226 lung is 24.5 µM; in the test with OVCAR-5 ovarian, 15.9 µM; with SF-295 CNS it was 11.8 µM; with SK-MEL-28 melanoma, 17 µM. Further, the concentration for total growth inhibition (TGI) in the test on A498 renal was 28.5 µM; in the test on CAKI-1 renal, 32.7 µM; in the test with COLO 205 colon, 30.8 µM; in the test with HCT-116 colon, 23 µM; in the test with HL-60(TB) leukemia, 35.8 µM; with HOP-92 NSCLC, 22.3 µM. Moreover, the TGI is 79.8 µM in the test on NCI-H226 lung, 41.7 µM with OVCAR-5 ovarian, 24.6 µM in the test with SF-295 CNS and 32.4 µM with SK-MEL-28 melanoma.
For `Cc1ccc2c(c1)C(=O)/C(=C/c1ncc([N+](=O)[O-])n1C)O2`, the GI50 was 1.99 µM with A498 renal; 0.665 µM in the test with CAKI-1 renal; 1.99 µM with COLO 205 colon; 0.282 µM with HCT-116 colon; 1.88 µM in the test with HL-60(TB) leukemia; 2.24 µM in the test with HOP-92 NSCLC. For the same compound, the GI50 in the test with NCI-H226 lung was 4.62 µM; in the test on OVCAR-5 ovarian, 2.7 µM; in the test with SF-295 CNS, 2.22 µM; in the test on SK-MEL-28 melanoma it was 2.34 µM. Also, the TGI with A498 renal is 6.63 µM; in the test on CAKI-1 renal it was 7.54 µM; in the test on COLO 205 colon, 5.09 µM; in the test with HCT-116 colon, 0.886 µM; with HL-60(TB) leukemia, 9.71 µM; with HOP-92 NSCLC, over 19.8 µM. The TGI in the test on NCI-H226 lung was 17.4 µM; in the test on OVCAR-5 ovarian, over 27 µM; in the test with SF-295 CNS, 7.82 µM; in the test with SK-MEL-28 melanoma, 7.29 µM.
`O=NN(Cc1ccc(Cl)cc1)C(C(=O)O)c1ccccc1` (stereo not given): the total growth inhibition concentration (TGI) in the test with A498 renal, in the test on CAKI-1 renal, in the test on COLO 205 colon, in the test with HCT-116 colon, in the test on HL-60(TB) leukemia and in the test on HOP-92 NSCLC was over 100 µM each time. In addition, the TGI in the test on NCI-H226 lung, with OVCAR-5 ovarian, in the test on SF-295 CNS and with SK-MEL-28 melanoma was over 100 µM in each case.
